In general, IC50 refers to the concentration that gives 50% inhibition. Higher therefore signals weaker potency in that assay.

Counter-ions that a name gives are not always drawn.

The results in this text go back to patent US10118930B2, “Piperidinylpyrazolopyrimidinones and their use” (BAYER PHARMA AKTIENGESELLSCHAFT, priority 2015, dated 2018).

The assay relates to clot lysis (fibrinolysis) in diluted human citrated plasma, tPA-induced. Nature of the assay: Plasma-based clot lysis assay (5%). Type of assay: biochemical. Particulars: human citrated platelet-poor plasma 5%, fibrinogen 3 μM, CaCl2 10 mM, tPA 0.2 nM, 37° C., OD at 405 nm. The method in brief:
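Compounds added to 5% platelet-poor citrated human plasma with 3 μM fibrinogen in 20 mM HEPES, 150 mM NaCl, 0.01% Brij, pH 7. Clotting and lysis started with 10 mM CaCl2 and 0.2 nM tPA at 37° C. IC50 derived by comparing time courses with a blank control reaction.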

Compound `O=C(c1cnn2c(C3CCNCC3)cc(=O)[nH]c12)N1CC(F)(F)C1` [Example 326, 3-[(3,3-difluoroazetidin-1-yl)carbonyl]-7-(piperidin-4-yl)pyrazolo[1,5-a]pyrimidin-5 (4H)-one hydrochloride] had an IC50 of 0.012 µM.

`O=C(c1cnn2c(C3CCNCC3)cc(=O)[nH]c12)N1CCCCC1` [Example 327, 7-(piperidin-4-yl)-3-(piperidin-1-ylcarbonyl)pyrazolo[1,5-a]pyrimidin-5(4H)-one hydrochloride] registered an IC50 of 0.009 µM.

With `CC1(C)CN(Cc2cnn3c(C4CCNCC4)cc(=O)[nH]c23)CCO1` [Example 330, 3-[(2,2-dimethylmorpholin-4-yl)methyl]-7-(piperidin-4-yl)pyrazolo[1,5-a]pyrimidin-5(4H)-one hydrochloride], the IC50 is 0.11 µM.

With `CC(C)(C)c1cnc(-c2cnn3c(C4CCNCC4)cc(=O)[nH]c23)o1` [Example 332, 3-(5-tert-butyl-1,3-oxazol-2-yl)-7-(piperidin-4-yl)pyrazolo[1,5-a]pyrimidin-5 (4H)-one hydrochloride], the IC50 turned out to be 0.026 µM.

For the compound `O=c1cc(C2CCNCC2)n2ncc(-c3nc(C4CCCCC4)cs3)c2[nH]1` [Example 335, 3-(4-cyclohexyl-1,3-thiazol-2-yl)-7-(piperidin-4-yl)pyrazolo[1,5-a]pyrimidin-5(4H)-one hydrochloride], the IC50 stood at 0.009 µM. This IC50 lies about 2.9-fold lower than the previous one.

`O=c1cc(C2CCNCC2)n2ncc(-c3nc(-c4ccccc4OC(F)F)cs3)c2[nH]1` [Example 337, 3-{4-[2-(difluoromethoxy)phenyl]-1,3-thiazol-2-yl}-7-(piperidin-4-yl)pyrazolo[1,5-a]pyrimidin-5(4H)-one hydrochloride] displayed an IC50 of 0.03 µM.

As to `Cc1nn2c(C3CCNCC3)cc(=O)[nH]c2c1-c1nnc(C(C)(C)C)o1` [Example 338, 3-(5-tert-butyl-1,3,4-oxadiazol-2-yl)-2-methyl-7-(piperidin-4-yl)pyrazolo[1,5-a]pyrimidin-5(4H)-one hydrochloride], the IC50 is 0.011 µM.

For the compound `Cc1noc(-c2c(C)nn3c(C4CCNCC4)cc(=O)[nH]c23)n1` [Example 339, 2-methyl-3-(3-methyl-1,2,4-oxadiazol-5-yl)-7-(piperidin-4-yl)pyrazolo[1,5-a]pyrimidin-5(4H)-one hydrochloride], the midpoint of inhibition, the IC50, lay at 0.028 µM. Against the preceding compound, the IC50 is about 2.5-fold higher.

In turn, `Cc1nn2c(C3CCNCC3)cc(=O)[nH]c2c1-c1nc(C(F)(F)F)no1` [Example 341, 2-methyl-7-(piperidin-4-yl)-3-[3-(trifluoromethyl)-1,2,4-oxadiazol-5-yl]pyrazolo[1,5-a]pyrimidin-5(4H)-one hydrochloride] had an IC50 of 0.034 µM.

Take `CN(C)Cc1cnn2c(C3CCNCC3)cc(=O)[nH]c12` [Example 342, 3-[(dimethylamino)methyl]-7-(piperidin-4-yl)pyrazolo[1,5-a]pyrimidin-5(4H)-one hydrochloride]: the IC50 is 0.17 µM. Compared with the last compound, the IC50 is about 5-fold higher.

Take `O=c1cc(C2CCNCC2)n2ncc(CN3CCCC3)c2[nH]1` [Example 343, 7-(piperidin-4-yl)-3-(pyrrolidin-1-ylmethyl)pyrazolo[1,5-a]pyrimidin-5(4H)-one hydrochloride]: the IC50 came out at 0.13 µM. The IC50 values of the last two compounds are within 1.5-fold of each other.

`O=c1cc(C2CCNCC2)n2ncc(C3CC3)c2[nH]1` [Example 344, 3-cyclopropyl-7-(piperidin-4-yl)pyrazolo[1,5-a]pyrimidin-5(4H)-one hydrochloride] yielded an IC50 of 0.12 µM.

The compound `O=c1cc(C2CCNCC2)n2ncc(CN3CCS(=O)(=O)CC3)c2[nH]1` [Example 345, 3-[(1,1-dioxidothiomorpholin-4-yl)methyl]-7-(piperidin-4-yl)pyrazolo[1,5-a]pyrimidin-5 (4H)-one hydrochloride] came in with an IC50 of 0.12 µM.

In turn, `Cc1nn2c(C3CCNCC3)cc(=O)[nH]c2c1-c1nc(-c2ccccc2OC(F)(F)F)no1` [Example 347, 2-methyl-7-(piperidin-4-yl)-3-{3-[2-(trifluoromethoxy)phenyl]-1,2,4-oxadiazol-5-yl}pyrazolo[1,5-a]pyrimidin-5(4H)-one hydrochloride] yielded an IC50 of 0.028 µM.
